Assay results from patent US20230173077A1 (AJK BIOPHARMACEUTICAL, LLC, priority 2020, published 2023).
Like-named read-outs stand apart in the source and are kept apart here.

System: HCoV-229E
Test: Antiviral activity and toxicity against HCoV-229E
Format: cell-based

| Structure (SMILES) | EC50 (Human coronavirus 229E) | EC50 |
| --- | --- | --- |
| CCC(CC)COC(=O)[C@H](C)N[P@](=O)(OC[C@H]1O[C@@](C#N)(c2ccc3c(N)ncnn23)[C@H](O)[C@@H]1O)Oc1ccccc1 [RDV, Remdesivir] | 0.07 µM | – |
| CCCCCCCCCCCCCC(=O)OCC1OC(n2cc(F)c(N)nc2=O)CS1 (centres unmarked) [5′-O-tetradecanoyl ester conjugate of 2′,3′-dideoxy-5-fluoro-3′-thiacytidine] | – | 82 µM |
